Reference: patent US9949972B2, “Combinations of histone deacetylase inhibitors and immunomodulatory drugs” (Acetylon Pharmaceuticals, Inc., priority 2013, dated 2018)

Experiments:
[1] = test system: Mino mantle cell lymphoma cells; experiment: Cell cycle inhibition, Mino cells; format: cell-based; conditions: 4 days, Compound A or B 2 μM, Lenalidomide 2 μM, Pomalidomide 1 μM
HDAC6 = target: T1, HDAC6 (Homo sapiens, UniProt Q9UBN7); experiment: HDAC enzyme assays (selectivity); format: biochemical; conditions: HDAC6 vs class I HDACs
T1 construct: purchased BPS Biosciences
T1 sequence (Q9UBN7 1-1215): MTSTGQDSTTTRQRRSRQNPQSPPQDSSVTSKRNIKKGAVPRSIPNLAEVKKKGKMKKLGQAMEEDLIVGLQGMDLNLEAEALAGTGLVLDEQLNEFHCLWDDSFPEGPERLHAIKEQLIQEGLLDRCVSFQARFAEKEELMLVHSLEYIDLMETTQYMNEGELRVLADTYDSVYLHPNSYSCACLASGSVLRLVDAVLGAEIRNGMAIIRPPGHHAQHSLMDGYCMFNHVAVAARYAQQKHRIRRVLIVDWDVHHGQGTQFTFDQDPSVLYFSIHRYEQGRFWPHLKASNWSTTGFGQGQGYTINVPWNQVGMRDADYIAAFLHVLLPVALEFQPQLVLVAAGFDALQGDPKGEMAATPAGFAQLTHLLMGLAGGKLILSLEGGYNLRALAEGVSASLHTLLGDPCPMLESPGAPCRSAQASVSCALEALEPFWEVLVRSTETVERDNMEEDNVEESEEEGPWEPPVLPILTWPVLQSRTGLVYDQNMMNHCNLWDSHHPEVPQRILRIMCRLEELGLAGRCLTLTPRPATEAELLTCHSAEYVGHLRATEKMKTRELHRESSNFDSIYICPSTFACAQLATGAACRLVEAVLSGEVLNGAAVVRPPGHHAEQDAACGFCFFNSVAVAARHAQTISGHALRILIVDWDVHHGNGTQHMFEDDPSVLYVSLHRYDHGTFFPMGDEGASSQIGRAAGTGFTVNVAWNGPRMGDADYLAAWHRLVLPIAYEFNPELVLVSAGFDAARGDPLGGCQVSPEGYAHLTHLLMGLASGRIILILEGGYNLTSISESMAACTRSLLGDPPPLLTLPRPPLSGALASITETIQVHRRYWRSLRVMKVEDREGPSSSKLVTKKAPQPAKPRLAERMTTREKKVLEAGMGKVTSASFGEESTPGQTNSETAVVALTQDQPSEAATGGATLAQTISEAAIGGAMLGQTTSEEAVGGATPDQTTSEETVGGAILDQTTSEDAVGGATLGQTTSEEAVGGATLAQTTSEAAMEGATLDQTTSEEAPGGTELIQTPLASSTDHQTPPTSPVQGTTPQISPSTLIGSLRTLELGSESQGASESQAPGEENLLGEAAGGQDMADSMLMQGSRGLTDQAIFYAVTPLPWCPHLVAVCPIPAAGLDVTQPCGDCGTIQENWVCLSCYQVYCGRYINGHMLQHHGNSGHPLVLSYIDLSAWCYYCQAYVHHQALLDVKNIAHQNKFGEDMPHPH
Description: Compounds for testing were diluted in DMSO to 50 fold the final concentration and a ten point three fold dilution series was made. The compounds were diluted in assay buffer (50 mM HEPES, pH 7.4, 100 mM KCl, 0.001% Tween-20, 0.05% BSA, 20 μM TCEP) to 6 fold their final concentration. The HDAC enzymes (purchased from BPS Biosciences) were diluted to 1.5 fold their final concentration in assay buffer. The tripeptide substrate and trypsin at 0.05 μM final concentration were diluted in assay buffer at 6 fold their final concentration. The final enzyme concentrations used in these assays were 3.3 ng/ml (HDAC1), 0.2 ng/ml (HDAC2), 0.08 ng/ml (HDAC3) and 2 ng/ml (HDAC6). […] Five μl of compound and 20 μl of enzyme were added to wells of a black, opaque 384 well plate in duplicate. Enzyme and compound were incubated together at room temperature for 10 minutes. Five μl of substrate was added to each well, the plate was shaken for 60 seconds and placed into a Victor 2 microtiter plate reader. The development of fluorescence was monitored for 60 min and the linear rate of the reaction was calculated. The IC50 was determined using Graph Pad Prism by a four parameter curve fit.

[2] = test system: Jeko1 mantle cell lymphoma cells; experiment: Cell cycle inhibition, Jeko1 cells; format: cell-based; conditions: 4 days, Compound B 2 μM, Lenalidomide 2 μM, Pomalidomide 1 μM

O=C(CCCCCCNC(=O)c1cnc(N(c2ccccc2)c2ccccc2)nc1)NO [Compound A, 2-(diphenylamino)-N-(7-(hydroxyamino)-7-oxoheptyl)pyrimidine-5-carboxamide]
cell cycle progression [1]: decreased cell cycle progression | selectivity for HDAC6 over class I HDAC's (HDAC6): approximately 11 fold

O=C(CCCCCCNC(=O)c1cnc(N(c2ccccc2)c2ccccc2Cl)nc1)NO [Compound B, 2-((2-chlorophenyl)(phenyl)amino)-N-(7-(hydroxyamino)-7-oxoheptyl)pyrimidine-5-carboxamide]
cell cycle progression [1]: decreased cell cycle progression | cell cycle progression [2]: decreased cell cycle progression

O=C(NO)c1cnc(NC2(c3cccc(F)c3)CCCCC2)nc1 [Compound C, 2-((1-(3-fluorophenyl)cyclohexyl)amino)-N-hydroxypyrimidine-5-carboxamide]
selectivity for HDAC6 over class I HDAC's (HDAC6): more than 300 fold
